Structures can show the parent of a compound that is named as a salt. Where only a bound is given, the exact number is not on record here.

Broadly, the IC50 is the midpoint of a concentration-inhibition curve. Read a low IC50 as greater potency.

The target in one assay is JAK1 protein kinase (Homo sapiens, UniProt P23458). Put plainly: biochemical. To be noted: 38 uM ATP, 90 min. The procedure:
In Vitro Activity Test of Jak1, Jak 2 and Jak 3 Kinase
Recombinant humanized JAK1, JAK2 and JAK3 […] were all purchased from Life technology. LANCE Ultra ULight™-JAK-1(Tyr1023) peptide and LANCE Eu-W1024 Anti-phosphotyrosine (PT66) were both purchased from PerkinElmer. Envision (PerkinElmer) was used to read a plate.
Three dilution of a test compound was prepared, and 11 final concentrations were obtained: 10 uM to 0.17 nM. Each concentration had two repeat wells. The content of DMSO in a detection reaction was 1%.
2 nM JAK1 protein kinase, 50 nM LANCE Ultra ULight™-JAK-1(Tyr1023) peptide, 38 uM ATP, 50 mM HEPES (pH7.5), 10 mM MgCl2, 1 mM EGTA, 2 mM DTT, and 0.01% BRIJ-35. Detection plate was White Proxiplate 384-Plus plate (PerkinElmer), the reaction was conducted for 90 min at room temperature, and reaction system was 10 ul.
10 ul detection reagent was added into the reaction plate, wherein the final concentration of LANCE Eu-W1024 Anti-phosphotyrosine (PT66) was 2 nM, the final concentration of EDTA was 10 mM, incubation was conducted for 60 min at room temperature, and the plate was read by the Envision.
The reading was converted into a suppression ratio as follow equation: (%)=([…])/(Max−Min)*100%. IC50 data was detected by 4 parametric curve fitting (Model 205 in XLFIT5, iDBS), see Table 1.

A further assay concerns the target JAK2 protein kinase (Homo sapiens, UniProt O60674). Put plainly: biochemical. The following applies: 12 uM ATP, 60 min.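 Note: recombinant human JAK2 with ULight-labelled JAK-1(Tyr1023) peptide substrate, phosphorylation detected by TR-FRET using Eu-labelled anti-phosphotyrosine antibody, 1% DMSO.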
Another assay has as its target T1, JAK3 (Homo sapiens, UniProt P52333).
T1 construct: purchased Life technology
T1 sequence (P52333 1-1124): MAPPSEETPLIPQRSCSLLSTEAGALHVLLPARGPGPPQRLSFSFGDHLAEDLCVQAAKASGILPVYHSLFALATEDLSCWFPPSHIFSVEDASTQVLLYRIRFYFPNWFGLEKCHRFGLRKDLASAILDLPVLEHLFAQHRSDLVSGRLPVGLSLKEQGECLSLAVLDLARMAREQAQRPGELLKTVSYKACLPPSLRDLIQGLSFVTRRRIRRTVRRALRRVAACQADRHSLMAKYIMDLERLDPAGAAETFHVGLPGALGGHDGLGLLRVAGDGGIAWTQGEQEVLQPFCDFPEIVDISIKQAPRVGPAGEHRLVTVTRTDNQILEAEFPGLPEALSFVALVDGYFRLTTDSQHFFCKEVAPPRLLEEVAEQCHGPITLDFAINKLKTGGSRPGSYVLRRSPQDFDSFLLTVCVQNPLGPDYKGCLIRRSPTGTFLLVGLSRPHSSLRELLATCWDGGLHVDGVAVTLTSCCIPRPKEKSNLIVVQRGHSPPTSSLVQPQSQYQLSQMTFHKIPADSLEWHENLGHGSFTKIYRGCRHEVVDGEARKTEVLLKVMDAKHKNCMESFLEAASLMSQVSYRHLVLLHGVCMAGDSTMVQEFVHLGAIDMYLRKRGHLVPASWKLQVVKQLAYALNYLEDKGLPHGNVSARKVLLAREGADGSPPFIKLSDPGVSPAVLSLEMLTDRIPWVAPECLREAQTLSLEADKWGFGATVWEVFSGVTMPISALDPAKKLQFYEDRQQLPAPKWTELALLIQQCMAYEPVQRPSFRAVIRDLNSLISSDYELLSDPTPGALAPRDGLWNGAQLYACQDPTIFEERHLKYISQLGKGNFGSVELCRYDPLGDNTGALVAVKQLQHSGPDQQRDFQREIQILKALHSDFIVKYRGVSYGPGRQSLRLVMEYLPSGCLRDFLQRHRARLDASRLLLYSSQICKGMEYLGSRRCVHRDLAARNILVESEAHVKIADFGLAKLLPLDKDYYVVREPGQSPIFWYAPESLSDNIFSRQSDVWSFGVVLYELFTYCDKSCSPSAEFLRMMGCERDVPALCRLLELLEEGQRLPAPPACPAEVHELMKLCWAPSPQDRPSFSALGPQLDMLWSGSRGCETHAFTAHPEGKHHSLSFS
Description: In vitro activity test of JAK3 kinase (LANCE Ultra TR-FRET).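 Note: recombinant human JAK3 phosphorylating ULight-JAK-1(Tyr1023) peptide at 4 µM ATP, with 1% DMSO, detected by Eu-anti-phosphotyrosine TR-FRET on Envision and converted to percent inhibition.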 It counts as biochemical. (In TR-FRET formats the signal depends on donor and acceptor labels being close together.)

JAK2 protein kinase, sequence (O60674 whole entry): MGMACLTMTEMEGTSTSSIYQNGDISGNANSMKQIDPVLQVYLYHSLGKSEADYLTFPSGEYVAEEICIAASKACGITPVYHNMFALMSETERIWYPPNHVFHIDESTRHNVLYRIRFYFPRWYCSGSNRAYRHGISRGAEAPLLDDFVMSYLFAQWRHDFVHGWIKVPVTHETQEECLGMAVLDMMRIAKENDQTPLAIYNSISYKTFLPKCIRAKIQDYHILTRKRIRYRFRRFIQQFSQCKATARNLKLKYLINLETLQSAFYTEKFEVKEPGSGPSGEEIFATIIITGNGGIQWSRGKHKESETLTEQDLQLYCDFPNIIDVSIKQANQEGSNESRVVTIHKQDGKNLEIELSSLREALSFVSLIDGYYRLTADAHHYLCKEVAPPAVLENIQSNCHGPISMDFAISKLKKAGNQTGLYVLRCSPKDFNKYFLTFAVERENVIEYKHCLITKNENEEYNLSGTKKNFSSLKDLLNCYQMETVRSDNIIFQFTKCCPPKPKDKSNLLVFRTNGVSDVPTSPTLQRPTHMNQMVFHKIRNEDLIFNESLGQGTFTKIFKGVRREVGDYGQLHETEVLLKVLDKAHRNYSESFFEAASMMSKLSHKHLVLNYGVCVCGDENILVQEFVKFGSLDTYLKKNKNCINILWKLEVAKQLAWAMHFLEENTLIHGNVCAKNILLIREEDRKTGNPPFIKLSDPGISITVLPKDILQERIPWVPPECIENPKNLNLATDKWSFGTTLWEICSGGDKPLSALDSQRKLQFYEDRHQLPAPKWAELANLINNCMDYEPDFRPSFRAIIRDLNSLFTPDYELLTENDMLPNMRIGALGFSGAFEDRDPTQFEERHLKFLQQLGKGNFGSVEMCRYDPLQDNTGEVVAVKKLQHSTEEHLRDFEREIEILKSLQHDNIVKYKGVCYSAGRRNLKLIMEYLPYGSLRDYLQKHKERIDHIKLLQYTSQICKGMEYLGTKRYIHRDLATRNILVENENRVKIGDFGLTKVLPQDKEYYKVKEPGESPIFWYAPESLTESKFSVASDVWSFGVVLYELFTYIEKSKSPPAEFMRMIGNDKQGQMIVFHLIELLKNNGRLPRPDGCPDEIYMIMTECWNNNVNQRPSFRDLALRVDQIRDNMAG
JAK1 protein kinase, sequence (P23458 whole entry): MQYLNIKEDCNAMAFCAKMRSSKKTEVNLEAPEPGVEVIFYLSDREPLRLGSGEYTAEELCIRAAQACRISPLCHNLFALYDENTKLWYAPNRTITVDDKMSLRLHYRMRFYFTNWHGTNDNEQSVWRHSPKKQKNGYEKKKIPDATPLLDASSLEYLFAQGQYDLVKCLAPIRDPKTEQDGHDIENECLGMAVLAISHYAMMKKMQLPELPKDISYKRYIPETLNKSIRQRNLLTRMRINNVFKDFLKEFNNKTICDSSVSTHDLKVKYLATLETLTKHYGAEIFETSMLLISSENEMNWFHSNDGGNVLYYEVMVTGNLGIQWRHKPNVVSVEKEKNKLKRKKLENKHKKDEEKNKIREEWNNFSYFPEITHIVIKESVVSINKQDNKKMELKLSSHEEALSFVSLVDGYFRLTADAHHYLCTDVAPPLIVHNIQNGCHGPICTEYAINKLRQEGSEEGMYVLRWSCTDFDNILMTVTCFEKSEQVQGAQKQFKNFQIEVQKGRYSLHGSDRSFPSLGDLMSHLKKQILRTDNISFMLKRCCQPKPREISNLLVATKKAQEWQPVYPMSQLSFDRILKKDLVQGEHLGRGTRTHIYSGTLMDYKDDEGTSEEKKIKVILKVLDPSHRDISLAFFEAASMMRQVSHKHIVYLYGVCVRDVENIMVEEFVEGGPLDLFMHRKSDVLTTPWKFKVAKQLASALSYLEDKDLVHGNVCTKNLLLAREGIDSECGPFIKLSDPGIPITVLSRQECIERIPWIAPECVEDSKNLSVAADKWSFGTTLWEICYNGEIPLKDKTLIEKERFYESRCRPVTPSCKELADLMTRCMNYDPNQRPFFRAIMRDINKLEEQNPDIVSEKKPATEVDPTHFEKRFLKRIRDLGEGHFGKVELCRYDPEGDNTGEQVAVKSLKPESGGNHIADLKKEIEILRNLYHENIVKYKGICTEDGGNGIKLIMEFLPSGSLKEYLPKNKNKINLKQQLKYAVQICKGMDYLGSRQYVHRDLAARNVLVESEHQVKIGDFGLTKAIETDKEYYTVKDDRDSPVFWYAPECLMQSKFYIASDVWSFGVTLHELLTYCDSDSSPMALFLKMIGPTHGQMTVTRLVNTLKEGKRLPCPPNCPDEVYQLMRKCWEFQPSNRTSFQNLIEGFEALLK
Description for JAK2 protein kinase: (§1) Recombinant humanized JAK1, JAK2 and JAK3 protease were all purchased from Life technology. LANCE Ultra ULight™-JAK-1(Tyr1023) peptide and LANCE Eu-W1024 Anti-phosphotyrosine (PT66) were both purchased from PerkinElmer. Envision (PerkinElmer) was used to read a plate.
(§2) The reading was converted into a suppression ratio as follow equation: (%)=(Min−Ratio)/(Max−Min)*100%.
Description for JAK3: as §1
0.05 nM protein kinase, 50 nM LANCE Ultra ULight™-JAK-1(Tyr1023) peptide, 4 uM ATP, 50 mM HEPES (pH7.5), 10 mM MgCl2, 1 mM EGTA, 2 mM DTT, and 0.01% BRIJ-35.
as §2

Regarding `O=C(NCC(F)(F)F)C1CCCN(Nc2ncnc3[nH]ccc23)C1` (stereo not drawn) [WX01, 1-((7H-pyrrolo[2,3-d]pyrimidin-4-yl)amino)-N-(2,2,2-trifluoroethyl)piperidyl-3-formamide], the IC50 against JAK1 protein kinase was < 10 nM; on JAK2 protein kinase it was 10 to 100 nM; against JAK3 it was 10 to 100 nM.
With `CN(c1ncnc2[nH]ccc12)N1CCCC(C(=O)NCC(F)F)C1` (stereo not drawn) [WX47, 1-[methyl(7H-pyrrole[2,3-d]pyrimidine-4-)amino]-N-(2,2-difluoroethyl)piperidyl-3-formamide], the values for the 50% inhibitory concentration (IC50) at JAK1 protein kinase, on JAK2 protein kinase and against JAK3 were ≤ 10 nM, 10 to 100 nM and < 10 nM, respectively.
Taken in the same sequence, the figures for `CN(c1ncnc2[nH]ccc12)N1CCC(NC(=O)CC(F)(F)F)CC1` [WX24] were 10 to 100 nM, 100 to 1000 nM and 100 to 1000 nM.
Taken in the same sequence, the figures for `CC1CCC(C(=O)NCC(F)(F)F)CN1N(C)c1ncnc2[nH]ccc12` (stereo not drawn) [WX27, 6-methyl-1-(methyl(7H-pyrrole[2,3-d]pyrimidin-4-yl)amino)-N-(2,2,2-trifluoroethyl)piperidyl-3-formamide] were 100 to 1000 nM, > 1000 nM and 100 to 1000 nM.
Taken in the same sequence, the figures for `CC1CCC2CN1N(c1ncnc3[nH]ccc13)C2=O` (stereo not drawn) [WX28, 2-methyl-7-(7H-pyrrolo[2,3-d]pyrimidin-4-yl)-1,7-diazabicyclo[3.2.1]octan-6-one] were > 1000 nM, > 1000 nM and > 1000 nM.
As for `CN(c1ncnc2[nH]ccc12)N1CCC(C(=O)NCC#N)C1` (stereo not drawn) [WX30, N-(cyanomethyl)-1-[methyl(7H-pyrrolo[2,3-d]pyrimidin-4-yl)amino]pyrrolidyl-3-formamide], the half-inhibitory concentration (IC50) is < 10 nM at JAK1 protein kinase, 10 to 100 nM on JAK2 protein kinase and 10 to 100 nM on JAK3.
On to `CN(c1ncnc2[nH]ccc12)N1CCC[C@H](C(=O)NCC#N)C1` (single isomer, unassigned) [WX09, (S or R)—N-(cyanomethyl-1-[methyl(7H-pyrrolo[2,3-d]pyrimidin-4-yl)amino]piperidyl)-3-formamide], for which the IC50 against JAK1 protein kinase was 100 to 1000 nM; against JAK2 protein kinase, > 1000 nM; against JAK3, > 1000 nM.
As for `CN(c1ncnc2[nH]ccc12)N1CCCC(C(=O)N2CC(O)C2)C1` (stereo not drawn) [WX54], the IC50 against JAK1 protein kinase, against JAK2 protein kinase and at JAK3 was 100 to 1000 nM each time.
In the case of `CC(C)(C)OC(=O)N1CC2CN(Nc3ncnc4[nH]ccc34)CC2C1` (stereo not drawn) [WX48, 5-[[7H-pyrrole[2,3-d]pyrimidine-4-]amino]-hexahydropyrrolo[3,4-c]pyrrole-2(1H)-tert-butyl formate], the concentration for half-maximal inhibition (IC50) on JAK1 protein kinase, against JAK2 protein kinase and against JAK3 was > 1000 nM throughout.
For `CN(c1ncnc2[nH]ccc12)N1CCC[C@@H](C(=O)NCC(F)F)C1` (single isomer, unassigned) [WX49, (3R or 3S)-1-[methyl(7H-pyrrole[2,3-d]pyrimidine-4-)amino]-N-(2,2-difluoroethyl)piperidyl-3-formamide], the IC50 on JAK1 protein kinase, against JAK2 protein kinase and on JAK3 was < 10 nM each time.
With `CN(c1ncnc2[nH]ccc12)N1CCC(C(=O)NCC(F)(F)F)CC1` [WX23], the results for the IC50 on JAK1 protein kinase, on JAK2 protein kinase and at JAK3 were 10 to 100 nM, 100 to 1000 nM and 10 to 100 nM, respectively.
Turning to `O=C(NCC(F)(F)F)C1CCN(Nc2ncnc3[nH]ccc23)CC1` [WX22], the IC50 is 100 to 1000 nM against JAK1 protein kinase, > 1000 nM on JAK2 protein kinase and 100 to 1000 nM against JAK3.
As to `CN(c1ncnc2[nH]ccc12)N1CCC(NC(=O)CC#N)CC1` [WX25, 2-cyano-N-(1-(methyl(7H-pyrrolo[2,3-d]pyrimidin-4-yl)amino)piperidin-4-yl)acetamide], the IC50 against JAK1 protein kinase is 10 to 100 nM; at JAK2 protein kinase, 100 to 1000 nM; on JAK3, 100 to 1000 nM.
For the molecule `CN(c1ncnc2[nH]ccc12)N1CCC[C@H](C(=O)NCC(F)(F)C(F)(F)F)C1` (single isomer, unassigned) [WX52, (3S or 3R)-1-[methyl(7H-pyrrole[2,3-d]pyrimidine-4-)amino]-N-(2,2,3,3,3-pentafluoropropyl)piperidyl-3-formamide], the IC50 on JAK1 protein kinase is < 10 nM; against JAK2 protein kinase, 10 to 100 nM; against JAK3, 10 to 100 nM.
`CN(c1ncnc2[nH]ccc12)N1CCCC(CNC(=O)CC#N)C1` (stereo not drawn) [WX45]: the IC50 fell in the range of 10 to 100 nM at JAK1 protein kinase, 100 to 1000 nM against JAK2 protein kinase and 100 to 1000 nM against JAK3.
Take `CN(c1ncnc2[nH]ccc12)N1CCC[C@@H](C(=O)NCC(F)(F)C(F)(F)F)C1` (single isomer, unassigned) [WX51, (3R or 3S)-1-[methyl(7H-pyrrole[2,3-d]pyrimidine-4-)amino]-N-(2,2,3,3,3-pentafluoropropyl)piperidyl-3-formamide]: the IC50 against JAK1 protein kinase, on JAK2 protein kinase and on JAK3 was > 1000 nM throughout.
Take `CN(CC(F)(F)F)C(=O)C1CCCN(N(C)c2ncnc3[nH]ccc23)C1` (stereo not drawn) [WX02, N-methyl-1-(methyl(7H-pyrrolo[2,3-d]pyrimidin-4-yl)amino)-(2,2,2-trifluoroethyl)piperidyl-3-formamide]: the half-maximal inhibitory concentration (IC50) against JAK1 protein kinase fell in the range of 10 to 100 nM; on JAK2 protein kinase it was 100 to 1000 nM; at JAK3 it was 10 to 100 nM.
For the molecule `CN(c1ncnc2[nH]ccc12)N1CCCC(CNC(=O)CC(F)(F)F)C1` (stereo not drawn) [WX19, 3,3,3-trifluoro-N-((1-(methyl(7H-pyrrole[2,3-d]pyrimidine-4-)amino)piperidyl-3-)methyl)propionamide], the IC50 at JAK1 protein kinase is 100 to 1000 nM; on JAK2 protein kinase, > 1000 nM; against JAK3, 100 to 1000 nM.
`CN(c1ncnc2[nH]ccc12)N1CCOC(C(=O)NCC(F)(F)F)C1` (stereo not drawn) [WX41, 4-(methyl(7H-pyrrolo[2,3-d]pyrimidin-4-yl)amino)-N-(2,2,2-trifluoroethyl)morpholine-2-formamide]: the IC50 was in the range of 10 to 100 nM on JAK1 protein kinase, 100 to 1000 nM at JAK2 protein kinase and 100 to 1000 nM against JAK3.
Turning to `CN(c1ncnc2[nH]ccc12)N1CCCC(C(=O)NC2CC(F)(F)C2)C1` (stereo not drawn) [WX56], the results for the IC50 at JAK1 protein kinase, against JAK2 protein kinase and against JAK3 were < 10 nM, > 1000 nM and 10 to 100 nM, respectively.
Taken in the same sequence, the figures for `O=C(NCC(F)(F)F)C1CCC2(CC1)CCN(Nc1ncnc3[nH]ccc13)CC2` [WX59] were 100 to 1000 nM, > 1000 nM and > 1000 nM.
`CN(c1ncnc2[nH]ccc12)N1CCCC(c2ncc(C(F)(F)F)[nH]2)C1` (stereo not drawn) [WX57, N-methyl-N-[3-[5-trifluoromethyl-1H-imidazol-2-yl]-1-piperidinyl]-7H-pyrrolo[2,3-d]pyrimidine-4-amine]: the IC50 on JAK1 protein kinase, against JAK2 protein kinase and at JAK3 was 10 to 100 nM in each case.
For `CN(c1ncnc2[nH]ccc12)N1CCCC(C(N)=O)C1` (stereo not drawn) [WX11], the IC50 at JAK1 protein kinase, on JAK2 protein kinase and on JAK3 was 100 to 1000 nM throughout.
As to `CN(c1ncnc2[nH]ccc12)N1CCCC(C(=O)Nc2cccc(C(F)(F)F)c2)C1` (stereo not drawn) [WX53, 1-[methyl(7H-pyrrolo[2,3-d]pyrimidin-4-yl)amino]-N-[3-(trifluoromethyl)phenyl]piperidyl-3-formamide], the 50% inhibitory concentration (IC50) against JAK1 protein kinase was in the range of 10 to 100 nM; at JAK2 protein kinase, 100 to 1000 nM; at JAK3 it was 100 to 1000 nM.

Source of the values: US10617690B2 (priority 2015, dated 2020).
